Measurements from ChEMBL document CHEMBL4376834, “Discovery of 4H-Chromen-4-one Derivatives as a New Class of Selective Rho Kinase (ROCK) Inhibitors, which Showed Potent Activity in ex Vivo Diabetic Retinopathy Models” (J Med Chem, 2019).

How the values were obtained:
[1] = Inhibition of human PKA using Kemptide as substrate incubated for 40 mins in presence of [gamma-33P]ATP by radiometric scintillation counting analysis
[2] = target: Rho-associated protein kinase 2 (Homo sapiens, UniProt O75116); test: Inhibition of recombinant human ROCK2 (11 to 552 residues) using KEAKEKRQEQIAKR as substrate incubated for 40 mins in presence of [gamma-33P]ATP and 10 uM ATP by radiometric scintillation counting analysis
Sequence of Rho-associated protein kinase 2 (O75116 whole entry, the tested form may be a part): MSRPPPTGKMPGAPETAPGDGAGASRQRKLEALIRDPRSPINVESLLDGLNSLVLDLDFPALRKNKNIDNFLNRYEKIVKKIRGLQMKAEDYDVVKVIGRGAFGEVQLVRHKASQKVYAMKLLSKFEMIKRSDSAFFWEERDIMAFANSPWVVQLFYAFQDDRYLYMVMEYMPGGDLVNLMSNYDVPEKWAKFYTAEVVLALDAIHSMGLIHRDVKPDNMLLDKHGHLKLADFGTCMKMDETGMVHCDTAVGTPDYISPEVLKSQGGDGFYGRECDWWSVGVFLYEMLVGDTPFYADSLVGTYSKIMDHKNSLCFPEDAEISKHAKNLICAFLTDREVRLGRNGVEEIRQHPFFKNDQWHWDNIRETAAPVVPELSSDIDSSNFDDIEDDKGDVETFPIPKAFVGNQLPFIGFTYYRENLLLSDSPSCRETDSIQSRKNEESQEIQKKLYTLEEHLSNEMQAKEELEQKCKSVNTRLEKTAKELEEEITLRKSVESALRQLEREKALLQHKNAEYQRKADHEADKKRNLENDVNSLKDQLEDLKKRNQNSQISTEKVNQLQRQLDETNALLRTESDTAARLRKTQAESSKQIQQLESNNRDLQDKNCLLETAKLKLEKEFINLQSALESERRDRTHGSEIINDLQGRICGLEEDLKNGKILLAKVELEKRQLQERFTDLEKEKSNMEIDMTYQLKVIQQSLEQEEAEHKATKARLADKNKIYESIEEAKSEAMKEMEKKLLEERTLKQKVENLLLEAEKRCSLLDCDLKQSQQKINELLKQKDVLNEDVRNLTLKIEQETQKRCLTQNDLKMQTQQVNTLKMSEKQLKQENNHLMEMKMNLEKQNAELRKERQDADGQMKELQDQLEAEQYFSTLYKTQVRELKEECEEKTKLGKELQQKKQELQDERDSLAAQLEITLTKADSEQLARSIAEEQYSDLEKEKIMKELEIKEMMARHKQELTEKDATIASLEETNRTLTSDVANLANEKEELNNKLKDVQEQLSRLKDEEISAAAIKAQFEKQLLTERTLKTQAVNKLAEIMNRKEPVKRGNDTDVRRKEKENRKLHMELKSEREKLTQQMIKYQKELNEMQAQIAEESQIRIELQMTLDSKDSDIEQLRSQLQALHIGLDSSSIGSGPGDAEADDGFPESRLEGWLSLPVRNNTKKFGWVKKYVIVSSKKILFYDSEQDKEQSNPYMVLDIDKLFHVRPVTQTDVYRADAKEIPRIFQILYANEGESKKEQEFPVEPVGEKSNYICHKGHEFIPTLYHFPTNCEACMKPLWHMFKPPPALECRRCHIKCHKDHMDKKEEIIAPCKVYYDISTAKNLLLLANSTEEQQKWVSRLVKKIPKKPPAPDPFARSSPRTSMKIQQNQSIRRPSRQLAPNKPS

[3] = target: Rho-associated protein kinase 1 (Homo sapiens, UniProt Q13464); test: Inhibition of recombinant human ROCK1 (17 to 535 residues) using […] as substrate incubated for 40 mins in presence of [gamma-33P]ATP and 10 uM ATP by radiometric scintillation counting analysis
Sequence of Rho-associated protein kinase 1 (Q13464 whole entry, the tested form may be a part): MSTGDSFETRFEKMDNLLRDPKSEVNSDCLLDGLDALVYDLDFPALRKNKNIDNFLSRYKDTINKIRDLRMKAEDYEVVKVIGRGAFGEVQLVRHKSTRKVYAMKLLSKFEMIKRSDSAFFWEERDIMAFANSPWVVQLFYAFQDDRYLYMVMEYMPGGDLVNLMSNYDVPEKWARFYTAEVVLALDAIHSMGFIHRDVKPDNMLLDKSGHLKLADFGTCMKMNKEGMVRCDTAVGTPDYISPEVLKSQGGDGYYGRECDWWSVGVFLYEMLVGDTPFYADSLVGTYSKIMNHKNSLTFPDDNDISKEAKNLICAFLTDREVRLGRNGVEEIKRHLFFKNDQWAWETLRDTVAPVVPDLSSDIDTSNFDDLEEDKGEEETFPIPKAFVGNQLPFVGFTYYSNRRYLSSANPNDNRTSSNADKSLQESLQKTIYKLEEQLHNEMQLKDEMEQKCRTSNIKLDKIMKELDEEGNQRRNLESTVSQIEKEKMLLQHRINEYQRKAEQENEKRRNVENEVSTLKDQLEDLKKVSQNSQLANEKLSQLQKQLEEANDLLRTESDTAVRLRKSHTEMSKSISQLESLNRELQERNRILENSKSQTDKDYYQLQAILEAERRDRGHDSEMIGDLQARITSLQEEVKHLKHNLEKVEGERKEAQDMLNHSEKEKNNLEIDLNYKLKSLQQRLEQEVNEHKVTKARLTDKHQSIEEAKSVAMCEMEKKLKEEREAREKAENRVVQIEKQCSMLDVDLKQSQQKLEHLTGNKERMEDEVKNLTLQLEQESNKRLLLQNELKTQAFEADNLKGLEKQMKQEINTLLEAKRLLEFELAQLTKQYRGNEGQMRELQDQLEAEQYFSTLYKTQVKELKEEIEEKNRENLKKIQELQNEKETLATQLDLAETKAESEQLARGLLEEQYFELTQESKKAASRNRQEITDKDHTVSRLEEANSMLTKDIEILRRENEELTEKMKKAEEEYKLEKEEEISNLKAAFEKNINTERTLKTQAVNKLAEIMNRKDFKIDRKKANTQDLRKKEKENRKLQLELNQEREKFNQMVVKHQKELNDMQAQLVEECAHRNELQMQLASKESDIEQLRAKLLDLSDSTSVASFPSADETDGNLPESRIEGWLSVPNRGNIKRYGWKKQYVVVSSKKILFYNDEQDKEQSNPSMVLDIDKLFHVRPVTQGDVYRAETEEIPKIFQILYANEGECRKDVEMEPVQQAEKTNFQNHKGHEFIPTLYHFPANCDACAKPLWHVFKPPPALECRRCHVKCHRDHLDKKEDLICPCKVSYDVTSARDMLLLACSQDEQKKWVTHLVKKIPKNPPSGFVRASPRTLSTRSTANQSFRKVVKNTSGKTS

| Structure (SMILES) | IC50 [1] | IC50 [2] | IC50 [3] |
| --- | --- | --- | --- |
| COc1cc(OCC(=O)Nc2cccc(NC(=O)c3ccc(N(C)C)cc3)c2)ccc1C=O | > 10000 nM | 306 nM | 3740 nM |
| CN(C)c1ccc(C(=O)Nc2ccc(NC(=O)COc3ccc4c(=O)ccoc4c3)cc2)cc1 | > 10000 nM | 302 nM | 1050 nM |
| COc1ccc(OCC(=O)Nc2cccc(NC(=O)c3ccc(N(C)C)cc3)c2)cc1OC | > 10000 nM | > 10000 nM | > 10000 nM |
| CN(C)c1ccc(C(=O)Nc2ccc(NC(=O)COc3ccc4c(=O)ccoc4c3)cc2C(F)(F)F)cc1 | > 10000 nM | 7100 nM | > 10000 nM |
| Cc1cc(NC(=O)COc2ccc3c(=O)ccoc3c2)cc(NC(=O)c2ccc(N(C)C)cc2)c1 | > 10000 nM | > 10000 nM | > 10000 nM |
| Nc1cccc(C(=O)Nc2cccc(NC(=O)COc3ccc4c(=O)ccoc4c3)c2)c1 | > 10000 nM | 58 nM | 670 nM |
| CN(C)c1ccc(C(=O)Nc2cccc(NC(=O)COc3ccc4c(c3)OCO4)c2)cc1 | > 10000 nM | > 10000 nM | > 10000 nM |
| CC(C)(C)c1ccc(S(=O)(=O)Nc2cccc(NC(=O)COc3ccc4c(=O)ccoc4c3)c2)cc1 | > 10000 nM | 899 nM | > 10000 nM |
| Cc1ccc(NC(=O)c2ccc(N(C)C)cc2)cc1NC(=O)COc1ccc2c(=O)ccoc2c1 | > 10000 nM | 3530 nM | > 10000 nM |
| CC(=O)c1ccc(OCC(=O)Nc2cccc(NC(=O)c3ccc(N(C)C)cc3)c2)cc1F | > 10000 nM | 98 nM | 445 nM |
| Cc1c(NC(=O)COc2ccc3c(=O)ccoc3c2)cccc1NC(=O)c1ccc(N(C)C)cc1 | > 10000 nM | > 10000 nM | > 10000 nM |
| COc1cccc(OCC(=O)Nc2cccc(NC(=O)c3ccc(N(C)C)cc3)c2)c1 | > 10000 nM | 5740 nM | > 10000 nM |
| CCc1ccc(C(=O)Nc2cccc(NC(=O)COc3ccc4c(=O)ccoc4c3)c2)cc1 | > 10000 nM | 24 nM | 235 nM |
| Cn1ccc(S(=O)(=O)Nc2cccc(NC(=O)COc3ccc4c(=O)ccoc4c3)c2)n1 | > 10000 nM | 1340 nM | > 10000 nM |
| CN(C)c1ccc(S(=O)(=O)Nc2cccc(NC(=O)COc3ccc4c(=O)ccoc4c3)c2)cc1 | > 10000 nM | 263 nM | 803 nM |
| CN(C)c1ccc(C(=O)Nc2cccc(NC(=O)COc3ccc4occc(=O)c4c3)c2)cc1 | > 10000 nM | > 10000 nM | > 10000 nM |
| Cc1c(OCC(=O)Nc2cccc(NC(=O)c3ccc(N(C)C)cc3)c2)ccc2c(=O)ccoc12 | > 10000 nM | 4160 nM | > 10000 nM |
| O=C(COc1ccc2c(=O)ccoc2c1)Nc1cccc(NC(=O)c2cccc([N+](=O)[O-])c2)c1 | > 10000 nM | 41 nM | 528 nM |
| CCOc1ccc(C(=O)Nc2cccc(NC(=O)COc3ccc4c(=O)ccoc4c3)c2)cc1 | > 10000 nM | 9 nM | 17 nM |
| O=C(COc1ccc2c(=O)ccoc2c1)Nc1cccc(NC(=O)c2cnc(C(F)(F)F)s2)c1 | > 10000 nM | 10 nM | 160 nM |

| Structure (SMILES) | IC50 [1] | IC50 [2] | IC50 [3] |
| --- | --- | --- | --- |
| CN(C)c1ccc(C(=O)Nc2cccc(NS(=O)(=O)COc3ccc4c(=O)ccoc4c3)c2)cc1 | > 10000 nM | 27 nM | 117 nM |
| Cc1cc(C(=O)Nc2cccc(NC(=O)COc3ccc4c(=O)ccoc4c3)c2)no1 | > 10000 nM | 5 nM | 68 nM |
| CN(C)c1ccc(C(=O)Nc2cc(Br)cc(NC(=O)COc3ccc4c(=O)ccoc4c3)c2)cc1 | > 10000 nM | 4560 nM | > 10000 nM |
| CN(C)c1ccc(C(=O)Nc2cccc(NC(=O)COc3ccc4c(c3)OCCC4=O)c2)cc1 | > 10000 nM | 85 nM | 144 nM |
| CC(C)(C)c1cc(C(=O)Nc2cccc(NC(=O)COc3ccc4c(=O)ccoc4c3)c2)no1 | > 10000 nM | 5 nM | 101 nM |
| CN(C)c1ccc(C(=O)Nc2cccc(NC(=O)COc3ccc4c(c3)OCCO4)c2)cc1 | > 10000 nM | > 10000 nM | > 10000 nM |
| CC(=O)Nc1cccc(NC(=O)COc2ccc3c(=O)ccoc3c2)c1 | > 10000 nM | 136 nM | 2500 nM |
| CN(C)c1ccc(C(=O)Nc2ccc(CNC(=O)COc3ccc4c(=O)ccoc4c3)cc2)cc1 | > 10000 nM | 999 nM | > 10000 nM |
| Cc1nc(C(=O)Nc2cccc(NC(=O)COc3ccc4c(=O)ccoc4c3)c2)cs1 | > 10000 nM | 33 nM | 473 nM |
| Nc1ccc(C(=O)Nc2cccc(NC(=O)COc3ccc4c(=O)ccoc4c3)c2)cc1 | > 10000 nM | 83 nM | 802 nM |
| N#Cc1ccc(C(=O)Nc2cccc(NC(=O)COc3ccc4c(=O)ccoc4c3)c2)cc1 | > 10000 nM | 15 nM | 123 nM |
| O=C(COc1ccc2c(=O)ccoc2c1)Nc1cccc(NS(=O)(=O)c2ccc(OC(F)(F)F)cc2)c1 | > 10000 nM | 1280 nM | 6440 nM |
| COc1ccc(OCC(=O)Nc2cccc(NC(=O)c3ccc(N(C)C)cc3)c2)cc1F | > 10000 nM | 652 nM | 1820 nM |
| CN(C)c1ccc(C(=O)Nc2cccc(NC(=O)COc3ccc4c(c3)CCC(=O)N4)c2)cc1 | > 10000 nM | 9970 nM | > 10000 nM |
| CN(C)c1ccc(C(=O)Nc2cccc(NC(=O)COc3ccc4c(c3)NC(=O)CC4)c2)cc1 | > 10000 nM | 3140 nM | > 10000 nM |
| Cc1cc(NC(=O)COc2ccc3c(=O)ccoc3c2)cc(NC(=O)c2ccc(N(C)C)cc2)c1C | > 10000 nM | 374 nM | 3950 nM |
| CCCc1ccc(C(=O)Nc2cccc(NC(=O)COc3ccc4c(=O)ccoc4c3)c2)cc1 | > 10000 nM | 14 nM | 143 nM |
| O=C(COc1ccc2c(=O)ccoc2c1)Nc1cccc(NC(=O)c2ccc(OC(F)(F)F)cc2)c1 | > 10000 nM | 77 nM | 869 nM |
| COc1ccc(C(=O)Nc2cccc(NC(=O)COc3ccc4c(=O)ccoc4c3)c2)cc1 | > 10000 nM | 7 nM | 18 nM |

Further lines, results first:

| IC50 [1] | IC50 [2] | IC50 [3] | Structure (SMILES) |
| --- | --- | --- | --- |
| > 10000 nM | 22 nM | 49 nM | CN(C)c1ccc(C(=O)Nc2cc(F)cc(NC(=O)COc3ccc4c(=O)ccoc4c3)c2)cc1 |
| > 10000 nM | 29 nM | 72 nM | COC(=O)c1ccc(C(=O)Nc2cccc(NC(=O)COc3ccc4c(=O)ccoc4c3)c2)cc1 |
| > 10000 nM | 176 nM | 1430 nM | CCCC(=O)Nc1cccc(NC(=O)COc2ccc3c(=O)ccoc3c2)c1 |
| > 10000 nM | 4210 nM | > 10000 nM | Cc1cc(NC(=O)COc2ccc3c(=O)ccoc3c2)ccc1NC(=O)c1ccc(N(C)C)cc1 |
| > 10000 nM | 49 nM | 303 nM | O=C(COc1ccc2c(=O)ccoc2c1)Nc1cccc(NC(=O)c2ccc(Br)cc2)c1 |
| > 10000 nM | 2150 nM | > 10000 nM | Cc1coc2cc(OCC(=O)Nc3cccc(NC(=O)c4ccc(N(C)C)cc4)c3)ccc2c1=O |
| > 10000 nM | 22 nM | 183 nM | Cc1ccc(C(=O)Nc2cccc(NC(=O)COc3ccc4c(=O)ccoc4c3)c2)cc1 |
| > 10000 nM | 34 nM | 165 nM | CC(C)(C)c1ccc(C(=O)Nc2cccc(NC(=O)COc3ccc4c(=O)ccoc4c3)c2)cc1 |
| > 10000 nM | > 10000 nM | > 10000 nM | CN(C)c1ccc(C(=O)Nc2cc(NC(=O)COc3ccc4c(=O)ccoc4c3)cc(C(F)(F)F)c2)cc1 |
| > 10000 nM | 6890 nM | > 10000 nM | O=C(COc1ccc2c(=O)ccoc2c1)Nc1cccc(NS(=O)(=O)c2ccc(C(F)(F)F)cc2)c1 |
| 9340 nM | 15 nM | 67 nM | O=C(COc1ccc2c(=O)ccoc2c1)Nc1cccc(NC(=O)c2ccc([N+](=O)[O-])cc2)c1 |
| > 10000 nM | 169 nM | 1040 nM | Cc1ccc(NC(=O)COc2ccc3c(=O)ccoc3c2)cc1NC(=O)c1ccc(N(C)C)cc1 |
| > 10000 nM | 43 nM | 460 nM | Cc1cc(C(=O)Nc2cccc(NC(=O)COc3ccc4c(=O)ccoc4c3)c2)ccc1C(F)(F)F |
| > 10000 nM | 2030 nM | 6890 nM | O=C(COc1ccc2c(=O)ccoc2c1)Nc1cccc(NC(=O)c2ccc(C(=O)O)cc2)c1 |
| > 10000 nM | 66 nM | 532 nM | NCc1ccc(C(=O)Nc2cccc(NC(=O)COc3ccc4c(=O)ccoc4c3)c2)cc1 |
| > 10000 nM | 54 nM | 129 nM | O=C(COc1ccc2c(=O)ccoc2c1)Nc1cccc(NC(=O)c2ccc(F)cc2)c1 |
| 3260 nM | 16 nM | 120 nM | O=C(COc1ccc2c(=O)ccoc2c1)Nc1cccc(NC(=O)c2ccccc2)c1 |
